This passage reports T/C results from PubChem BioAssay AID246 (DTP/NCI, 2004).

Where “and” joins values, the source holds several entries; their conditions need not be identical. Equal entries are not always repeated. Toxic doses and inconclusive results are not listed.

This assay relates to BDF1 mice, P1081 chloroleukemia ip, survival T/C. The experiment in a line: NCI In Vivo Anticancer Drug Screen. Data for tumor model P1081 Chloroleukemia (intraperitoneal) in B6D2F1 (BDF1) mice. As to conditions: endpoint: mean survival time, higher = longer survival. The method, then:
The antitumor activity of compounds was measured in mice bearing transplantable tumors. Survival or tumor size were measured and the results are expressed as the measurement made in the treated group (T) divided by the measurement made in the vehicle treated control group (C). The tumor model used in this assay is P1081 Chloroleukemia (intraperitoneal) in B6D2F1 (BDF1) mice

The mark [1] stands for this setting: dose: 4.0 mg/kg/injection, schedule: Q01DX Z (ip), vehicle: carboxymethylcellulose (CMC).
[2] abbreviates: dose: 8.0 mg/kg/injection, schedule: Q01DX Z (ip), vehicle: carboxymethylcellulose (CMC).
Setting [3] is: dose: 8.0 mg/kg/injection, schedule: Q01DX010 (ip), vehicle: saline.
[4] abbreviates: dose: 16.0 mg/kg/injection, schedule: Q01DX010 (ip), vehicle: saline.
Setting [5] is: dose: 32.0 mg/kg/injection, schedule: Q01DX010 (ip), vehicle: saline.
Where [6] appears, read: dose: 64.0 mg/kg/injection, schedule: Q01DX010 (ip), vehicle: saline.
[7] abbreviates: dose: 62.5 mg/kg/injection, schedule: Q01DX Z (ip), vehicle: carboxymethylcellulose (CMC).
Setting [8] is: dose: 125.0 mg/kg/injection, schedule: Q01DX Z (ip), vehicle: carboxymethylcellulose (CMC).
[9] abbreviates: dose: 250.0 mg/kg/injection, schedule: Q01DX Z (ip), vehicle: carboxymethylcellulose (CMC).
The mark [10] stands for this setting: dose: 500.0 mg/kg/injection, schedule: Q01DX Z (ip), vehicle: carboxymethylcellulose (CMC).

Turning to `C[C@H](N)C(=O)N[C@@H]1[C@H]2C(=C(O)C[C@@H](O)[C@@H]2O)C(=O)O[C@@H]1C`, the T/C is, setting by setting: (dose: 93.8 mg/kg/injection, schedule: Q01DX Z (ip), vehicle: saline) 124 % of control; (dose: 187.5 mg/kg/injection, schedule: Q01DX Z (ip), vehicle: saline) 150 % of control; (dose: 250.0 mg/kg/injection, schedule: Q01DX Z (ip), vehicle: saline) 161 % of control; (dose: 375.0 mg/kg/injection, schedule: Q01DX Z (ip), vehicle: saline) 175 % of control; (dose: 500.0 mg/kg/injection, schedule: Q01DX Z (ip), vehicle: saline) 153 % of control; (dose: 1000.0 mg/kg/injection, schedule: Q01DX Z (ip), vehicle: saline) 119 % of control.

`N#Cc1cn(C2OC(CO)C(O)C2O)c2ncnc(N)c12` (centres undefined): the T/C reads like this: (dose: 0.03 mg/kg/injection, schedule: Q01DX Z (ip), vehicle: carboxymethylcellulose (CMC)) 97 % of control; (dose: 0.06 mg/kg/injection, schedule: Q01DX Z (ip), vehicle: carboxymethylcellulose (CMC)) 103 % of control; (dose: 0.12 mg/kg/injection, schedule: Q01DX Z (ip), vehicle: carboxymethylcellulose (CMC)) 103 % of control; (dose: 0.25 mg/kg/injection, schedule: Q01DX Z (ip), vehicle: carboxymethylcellulose (CMC)) 88 % of control; (dose: 0.5 mg/kg/injection, schedule: Q01DX Z (ip), vehicle: carboxymethylcellulose (CMC)) 94 % of control.

`NC(=O)N(CCCl)N=O`: the T/C reads like this: (dose: 1.0 mg/kg/injection, schedule: Q01DX Z (ip), vehicle: carboxymethylcellulose (CMC)) 97 % of control; under setting [1], 95 % of control; under setting [2], 106 % of control; (dose: 16.0 mg/kg/injection, schedule: Q01DX Z (ip), vehicle: carboxymethylcellulose (CMC)) 108 % of control.

Regarding `Nc1nc(SCc2ccccc2)c2[nH]cnc2n1`, the T/C is 91 % of control (dose: 4.7 mg/kg/injection, schedule: Q01DX Z (ip), vehicle: carboxymethylcellulose (CMC)); 110 % of control and 116 % of control under setting [3]; 90 % of control (dose: 9.4 mg/kg/injection, schedule: Q01DX Z (ip), vehicle: carboxymethylcellulose (CMC)); 116 % of control and 105 % of control under setting [4]; 100 % of control (dose: 18.75 mg/kg/injection, schedule: Q01DX Z (ip), vehicle: carboxymethylcellulose (CMC)); 110 % of control and 122 % of control under setting [5]. Under setting [6], the T/C was 105 % of control.

With `N=C(N)c1ccc(Nc2ccc(C(=N)N)cc2)cc1`, the T/C (dose: 0.8 mg/kg/injection, schedule: Q01DX Z (ip), vehicle: methylcellulose (MC)) was 95 % of control; the T/C (dose: 1.6 mg/kg/injection, schedule: Q01DX Z (ip), vehicle: methylcellulose (MC)) was 107 % of control; the T/C (dose: 3.0 mg/kg/injection, schedule: Q01DX010 (ip), vehicle: saline) is 111 % of control; the T/C (dose: 3.1 mg/kg/injection, schedule: Q01DX Z (ip), vehicle: methylcellulose (MC)) is 96 % of control and 103 % of control; the T/C (dose: 6.0 mg/kg/injection, schedule: Q01DX010 (ip), vehicle: saline) is 100 % of control; the T/C (dose: 6.3 mg/kg/injection, schedule: Q01DX Z (ip), vehicle: methylcellulose (MC)) is 99 % of control. Moreover, the T/C is, setting by setting: (dose: 12.0 mg/kg/injection, schedule: Q01DX010 (ip), vehicle: saline) 100 % of control; (dose: 12.5 mg/kg/injection, schedule: Q01DX Z (ip), vehicle: methylcellulose (MC)) 98 % of control.

As to `Clc1ncnc2nc[nH]c12`, the T/C (dose: 7.5 mg/kg/injection, schedule: Q01DX010 (ip), vehicle: saline) was 110 % of control and 90 % of control; the T/C (dose: 15.0 mg/kg/injection, schedule: Q01DX010 (ip), vehicle: saline) was 90 % of control and 100 % of control; the T/C (dose: 30.0 mg/kg/injection, schedule: Q01DX010 (ip), vehicle: saline) was 110 % of control and 95 % of control; the T/C (dose: 31.25 mg/kg/injection, schedule: Q01DX Z (ip), vehicle: carboxymethylcellulose (CMC)) is 98 % of control; the T/C (dose: 60.0 mg/kg/injection, schedule: Q01DX010 (ip), vehicle: saline) is 110 % of control and 104 % of control; the T/C under setting [7] was 107 % of control and 105 % of control. For the same compound, the T/C is, setting by setting: under setting [8], 114 % of control and 121 % of control; under setting [9], 86 % of control and 94 % of control.

For `CN(Cc1cnc2nc(N)nc(N)c2n1)c1c(Cl)cc(C(=O)NC(CCC(=O)O)C(=O)O)cc1Cl` (centres undefined), the T/C by setting is: (dose: 12.5 mg/kg/injection, schedule: Q01DX Z (ip), vehicle: carboxymethylcellulose (CMC)) 101 % of control; (dose: 25.0 mg/kg/injection, schedule: Q01DX Z (ip), vehicle: carboxymethylcellulose (CMC)) 102 % of control.

In the case of `O=c1cn[nH]c(=O)[nH]1`, the T/C runs as follows: under setting [1], 102 % of control; under setting [2], 93 % of control; (dose: 62.5 mg/kg/injection, schedule: Q01DX010 (ip), vehicle: saline) 95 % of control; (dose: 125.0 mg/kg/injection, schedule: Q01DX010 (ip), vehicle: saline) 95 % of control; under setting [8], 123 % of control and 94 % of control; (dose: 250.0 mg/kg/injection, schedule: Q01DX010 (ip), vehicle: saline) 90 % of control and 95 % of control. The T/C under setting [9] is 117 % of control; the T/C (dose: 500.0 mg/kg/injection, schedule: Q01DX010 (ip), vehicle: saline) is 110 % of control and 100 % of control; the T/C under setting [10] was 117 % of control; the T/C (dose: 1000.0 mg/kg/injection, schedule: Q01DX Z (ip), vehicle: carboxymethylcellulose (CMC)) was 97 % of control.

`O=c1[nH]c(=O)n(C2CC(O)C(CO)O2)cc1I` (centres undefined): the T/C is, setting by setting: under setting [7], 103 % of control; under setting [8], 108 % of control; under setting [9], 118 % of control and 92 % of control; under setting [10], 114 % of control.

Consider `N#[N+]c1cnc([O-])[nH]c1=O`, for which the T/C runs as follows: (dose: 1.25 mg/kg/injection, schedule: Q01DX010 (ip), vehicle: saline) 115 % of control; (dose: 5.0 mg/kg/injection, schedule: Q01DX010 (ip), vehicle: saline) 160 % of control; (dose: 10.0 mg/kg/injection, schedule: Q01DX010 (ip), vehicle: saline) 160 % of control and 166 % of control.

For the compound `CCCCCCCCCCCCNCCCCCCCCCCCC`, the T/C (dose: 0.24 mg/kg/injection, schedule: Q01DX Z (ip), vehicle: saline) is 91 % of control; the T/C (dose: 0.48 mg/kg/injection, schedule: Q01DX Z (ip), vehicle: carboxymethylcellulose (CMC)) is 112 % of control; the T/C (dose: 0.48 mg/kg/injection, schedule: Q01DX Z (ip), vehicle: saline) is 90 % of control; the T/C (dose: 1.9 mg/kg/injection, schedule: Q01DX Z (ip), vehicle: carboxymethylcellulose (CMC)) is 101 % of control; the T/C (dose: 1.9 mg/kg/injection, schedule: Q01DX Z (ip), vehicle: saline) is 94 % of control; the T/C (dose: 3.8 mg/kg/injection, schedule: Q01DX Z (ip), vehicle: carboxymethylcellulose (CMC)) was 103 % of control.

`c1ccc(CNc2ncnc3[nH]ncc23)cc1`: the T/C is, setting by setting: (dose: 0.98 mg/kg/injection, schedule: Q01DX Z (ip), vehicle: carboxymethylcellulose (CMC)) 93 % of control; (dose: 1.95 mg/kg/injection, schedule: Q01DX Z (ip), vehicle: carboxymethylcellulose (CMC)) 94 % of control; (dose: 3.9 mg/kg/injection, schedule: Q01DX Z (ip), vehicle: carboxymethylcellulose (CMC)) 93 % of control; (dose: 7.8 mg/kg/injection, schedule: Q01DX Z (ip), vehicle: carboxymethylcellulose (CMC)) 112 % of control; under setting [3], 111 % of control; under setting [4], 111 % of control and 116 % of control. In addition, the T/C under setting [5] is 111 % of control and 122 % of control; the T/C under setting [6] was 111 % of control.

Regarding `CC(=O)NC1=C(N2CC2)C(=O)C(NC(C)=O)=C(N2CC2)C1=O`, the T/C is 188 % of control and 210 % of control (dose: 250.0 micrograms/kg/injection, schedule: Q01DX010 (ip), vehicle: saline); 255 % of control and 270 % of control (dose: 500.0 micrograms/kg/injection, schedule: Q01DX010 (ip), vehicle: saline); 115 % of control (dose: 1000.0 micrograms/kg/injection, schedule: Q01DX010 (ip), vehicle: saline).
